The values that follow come from US20250302783A1, “SYMPATHETIC NERVE ACTIVATION AGENT AND SYMPATHETIC NERVE ACTIVATION COMPOSITION” (MARUZEN PHARMACEUTICALS CO., LTD., priority 2022, published 2025).

Assay [1] relates to distal branches of the sympathetic nerve innervating the interscapular brown adipose tissue. The assay is described as follows: Brown adipose tissue sympathetic nerve activity (BAT-SNA) after intragastric administration, Test Example 1. The assay is classed as in vivo, rat. Particulars: urethane-anesthetized male rats, measured for 60 minutes, FIG. 2. On the procedure: The effect of the intragastric administration of the compound represented by Structural Formula (1) on the activity of the sympathetic nerve innervating the white adipose tissue, the brown adipose tissue, the adrenal gland, or the liver was tested in the following manner. For the experiment, male Whistar rats (approximately 9 weeks old) each having a body weight of approximately 300 g were kept in a 24° C. thermostatic animal room for 1 week or longer with a 12-hour light-dark cycle (lighting from 8:00 to 20:00). On the day of the experiment, the rats were fasted for 3 hours, followed by anesthetizing with urethane. A cannula for intragastric administration was inserted into each of the rats, and then distal branches of the sympathetic nerve innervating the right epididymal white adipose tissue, the interscapular brown adipose tissue, the left adrenal gland, or the liver were lifted with a silver electrode, and the electrical activity thereof was measured. When the measurement value stabilized (at approximately 13:00), an aqueous solution of the compound represented by Structural Formula (1) (produced by Tokyo Chemical Industry Co., Ltd.) was intragastrically administered using the cannula at a dose of 15 mg/0.5 mL/300 g of body weight, 1.5 mg/0.5 mL/300 g of body weight, 0.15 mg/0.5 mL/300 g of body weight, or 0.015 mg/0.5 mL/300 g of body weight, and the change in the neural activity of the distal branches of the above sympathetic nerves was measured electrophysiologically for 60 minutes. In addition, as a control, water serving as a solvent was intragastrically administered using the cannula at a dose of 0.5 mL/300 g of body weight, and the change in the neural activity of the distal branches of the above sympathetic nerves was measured electrophysiologically for 60 minutes. […] The data of the neural activity was analyzed as the mean value of the firing rate per 5 seconds (pulse/5 s) every 5 minutes, and represented by a percentage relative to the mean value (a value at 0 minutes) at 5 minutes before the onset of stimulation being determined as 100%. […]

Assay [2] deals with distal branches of the sympathetic nerve innervating the left adrenal gland. Put plainly: Adrenal sympathetic nerve activity (ASNA) after intragastric administration, Test Example 1. Format: in vivo, rat. Particulars: urethane-anesthetized male rats, measured for 60 minutes, FIG. 3. On the procedure: The effect of the intragastric administration of the compound represented by Structural Formula (1) on the activity of the sympathetic nerve innervating the white adipose tissue, the brown adipose tissue, the adrenal gland, or the liver was tested in the following manner. For the experiment, male Whistar rats (approximately 9 weeks old) each having a body weight of approximately 300 g were kept in a 24° C. thermostatic animal room for 1 week or longer with a 12-hour light-dark cycle (lighting from 8:00 to 20:00). On the day of the experiment, the rats were fasted for 3 hours, followed by anesthetizing with urethane. A cannula for intragastric administration was inserted into each of the rats, and then distal branches of the sympathetic nerve innervating the right epididymal white adipose tissue, the interscapular brown adipose tissue, the left adrenal gland, or the liver were lifted with a silver electrode, and the electrical activity thereof was measured. When the measurement value stabilized (at approximately 13:00), an aqueous solution of the compound represented by Structural Formula (1) (produced by Tokyo Chemical Industry Co., Ltd.) was intragastrically administered using the cannula at a dose of 15 mg/0.5 mL/300 g of body weight, 1.5 mg/0.5 mL/300 g of body weight, 0.15 mg/0.5 mL/300 g of body weight, or 0.015 mg/0.5 mL/300 g of body weight, and the change in the neural activity of the distal branches of the above sympathetic nerves was measured electrophysiologically for 60 minutes. In addition, as a control, water serving as a solvent was intragastrically administered using the cannula at a dose of 0.5 mL/300 g of body weight, and the change in the neural activity of the distal branches of the above sympathetic nerves was measured electrophysiologically for 60 minutes. […] The data of the neural activity was analyzed as the mean value of the firing rate per 5 seconds (pulse/5 s) every 5 minutes, and represented by a percentage relative to the mean value (a value at 0 minutes) at 5 minutes before the onset of stimulation being determined as 100%. FIG. 3 illustrates, as a percentage with respect to the mean value (a value at 0 minutes) at 5 minutes before the onset of stimulation being determined as 100%, the result of the change in the neural activity of distal branches of the sympathetic nerves for the adrenal gland (adrenal sympathetic nerve activity, ASNA) when the aqueous solution including 15 mg, 1.5 mg, 0.15 mg, or 0.015 mg of the compound represented by Structural Formula (1) was intragastrically administered at a dose of 0.5 mL/300 g of body weight, or water serving as the solvent was intragastrically administered at a dose of 0.5 mL/300 g of body weight.

[3] abbreviates: 0.15 mg/0.5 mL/300 g of body weight.
The mark [4] stands for this setting: 1.5 mg/0.5 mL/300 g of body weight.
Where [5] appears, read: 15 mg/0.5 mL/300 g of body weight.

For `COc1cc(CCC(=O)O)ccc1O` [3-(4-hydroxy-3-methoxyphenyl) propionic acid], the “change in brown adipose tissue sympathetic nerve activity (BAT-SNA) versus water control” value in assay [1] (setting [3]), in assay [1] (setting [4]) and in assay [1] (setting [5]) was “higher than the BAT-SNA value of the group to which water serving as the solvent was administered” throughout. Moreover, the “change in adrenal sympathetic nerve activity (ASNA) versus water control” value in assay [2] (0.015 mg/0.5 mL/300 g of body weight), in assay [2] (setting [3]), in assay [2] (setting [4]) and in assay [2] (setting [5]) was “higher than the ASNA value of the group to which water serving as the solvent was administered” throughout.
